This is an account of results in patent US10370364B1, “Substituted chromenes for treatment of fibrosis or non-alcoholic steatohepatitis” (OSTEONEUROGEN INC., priority 2018, dated 2019).

Series [1] concerns α-SMA (alpha-smooth muscle actin). Nature of the series: α-SMA expression in ONGHEPA1 cells by immunofluorescent staining. The note with it: TGF-β plus compound 50 μM. In kind it is cell-based, rat. The source says: In addition, in order to examine whether the above-described effect would be attributable to the effect against epithelial-mesenchymal transition (EMT) (hereinafter referred to as “EMT”), the expression of α-SMA (alpha-smooth muscle actin), which is a representative marker of EMT, in the cells of each test group, was examined by immunofluorescent staining and nuclear staining (DAPI staining).

For series [2], the system named is Diseased human lung fibroblasts (DHLF). The series can be described thus: TGF-β-induced fibrosis of diseased human lung fibroblasts (DHLF). The note with it: TGF-β 5 ng/ml, compound 50 μM, 24, 48 or 72 hours. In kind it is cell-based. Here is the method:
Diseased human lung fibroblasts (DHLF) (Lonza, Swiss) isolated from lung fibrosis patients were seeded into medium, cultured for 24 hours, and then treated with TGF-β (5 ng/ml) to induce fibrosis. Alternatively, the fibroblasts were co-treated with TGF-β and the compound of the present invention (50 μM in DMSO) and cultured for 24, 48 or 72 hours. Next, the degree of differentiation into myofibroblasts was examined with a phase contrast microscope (200×).

In the next series the test system is Vimentin. The series can be described thus: Vimentin expression in A549 cells by real-time PCR. In kind it is cell-based, human. The settings on record: A549, TGF-β plus compound. Here is the method:
In addition, in order to examine whether the effect as described above would be attributable to the effect against EMT, the expression patterns of Snail and Vimentin, which are representative markers of EMT, in the cells of each test group, were analyzed by real-time PCR.
(Real-time PCR tracks product formation cycle by cycle.)

The next series concerns C57BL/6 mice. Nature of the series: Bleomycin-induced pulmonary fibrosis animal model. In kind it is in vivo. The note with it: for Mean Collagen % (histopathology collagen morphometry, left lung): Sirius red. An excerpt: 5-week-old male C57BL/6 mice (weighed 18.2 to 20.5 g) (KOATECH, Korea) were used as experimental animals and divided into several groups, each consisting of 5 animals.
The experimental animals were housed in a housing box having a size of 369 L×156 W×132H (mm) (EU, USA, UK GL compliance) made of a polysulfone material in a SPF (Specific Pathogen Free) and BSL (Bio Safety Level) 2 grade facility. The number of animals in each housing box was 2 to 3 during the period of quarantine and acclimatization and was also 2 to 3 during the experimental period, and the housing conditions were set to a temperature of 22±2° C., a relative humidity of 50.0±15.0%, a ventilation cycle of 10 to 20 times/hr, a light-dark cycle (a photoperiod) of 12 hr/day (07:00 to 19:00), and an illumination intensity of 150 to 300 Lux.
Pulmonary fibrosis was induced by injecting a bleomycin solution directly into the lungs via the trachea according to the intratracheal instillation (IT) method of Kremer, Laxer and Berkman et al. Specifically, C57BL/6J mice were anesthetized through inhalation with 70% N2O and 30% O2 gas and 1.5% isoflurane, and the skin of the anterior neck thereof was excised and the organs under the muscle thereof were exposed and then carefully excised using ophthalmic surgical scissors. 50 μL of a solution of bleomycin in distilled water was injected directly into the lungs all at once via the excised organ by use of a 1 mL syringe fitted with a 19-gauge injection needle having a blunt tip. Immediately after the injection, the excised skin of the anterior neck was sutured and the mice were allowed to recover from the anesthetic, and then housed in a general housing cage. The administration of bleomycin was performed using a visual instillobot, and bleomycin-HCl 40 μg/50 μL was administered once and a pulmonary fibrosis induction period of 12 days was set.
The compound of the present invention was used after dissolution in 30% HPCD aqueous solution (Formulation Example 5), and the dose for each individual was calculated based on the recent body weight thereof. 12 Days after the administration of bleomycin, the compound of the present invention was administered once a day (5 times a week) for 2 weeks. As a control, pirfenidone which is a therapeutic agent for idiopathic pulmonary fibrosis was administered in the same manner.
On 15 days after administration of the compound, the mice were sacrificed, and then the right lung of each mouse was dissected and the weight thereof was measured. […] In particular, it is noted that the inhibitory effect of the compound in the group administered at 10 mpk was the highest compared to that in the group administered at 50 or 100 mpk and was also higher than that in the group administered with pirfenidone 100 mpk.
The amounts of hydroxyproline (HP) and collagen in the dissected right lung were measured using a known method.
Histopathology collagen morphometry of the dissected left lung tissue was performed using a known method (calculating the area of collagen in an optical image obtained by Sirius red staining of the lung tissue sample).
The pathological conditions of the left lung tissue dissected using a known method were examined by H&E and Sirius Red staining. […] In particular, it is noted that the inhibitory effect of the compound in the group administered at 10 mpk was the highest compared to that in the groups administered at other concentrations.
In order to examine the effect of each treatment in this Experiment on the liver, the liver of each of the sacrificed mice was dissected, and the pathological conditions of the liver tissue were examined by H&E staining.

Another series concerns the target CYP3A4 (Homo sapiens, UniProt P08684).
The next series deals with CYP2C9 (Homo sapiens, UniProt P11712). Nature of the series: CYP450 inhibition, CYP2C9.
Sequence of CYP2C9 (P11712 whole entry): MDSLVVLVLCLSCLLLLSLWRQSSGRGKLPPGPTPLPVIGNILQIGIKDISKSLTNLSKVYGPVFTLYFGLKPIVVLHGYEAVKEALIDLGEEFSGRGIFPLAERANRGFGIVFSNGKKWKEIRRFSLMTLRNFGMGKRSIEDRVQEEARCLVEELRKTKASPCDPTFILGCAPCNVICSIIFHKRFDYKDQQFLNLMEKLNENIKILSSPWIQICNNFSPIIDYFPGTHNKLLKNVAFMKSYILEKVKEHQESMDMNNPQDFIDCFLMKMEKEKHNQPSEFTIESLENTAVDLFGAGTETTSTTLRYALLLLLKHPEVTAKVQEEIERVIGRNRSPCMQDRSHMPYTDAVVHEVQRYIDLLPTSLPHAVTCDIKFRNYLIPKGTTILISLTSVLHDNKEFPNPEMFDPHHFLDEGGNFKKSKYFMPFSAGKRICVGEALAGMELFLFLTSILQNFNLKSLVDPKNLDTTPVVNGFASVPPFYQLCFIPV

Sequence of CYP3A4 (P08684 whole entry): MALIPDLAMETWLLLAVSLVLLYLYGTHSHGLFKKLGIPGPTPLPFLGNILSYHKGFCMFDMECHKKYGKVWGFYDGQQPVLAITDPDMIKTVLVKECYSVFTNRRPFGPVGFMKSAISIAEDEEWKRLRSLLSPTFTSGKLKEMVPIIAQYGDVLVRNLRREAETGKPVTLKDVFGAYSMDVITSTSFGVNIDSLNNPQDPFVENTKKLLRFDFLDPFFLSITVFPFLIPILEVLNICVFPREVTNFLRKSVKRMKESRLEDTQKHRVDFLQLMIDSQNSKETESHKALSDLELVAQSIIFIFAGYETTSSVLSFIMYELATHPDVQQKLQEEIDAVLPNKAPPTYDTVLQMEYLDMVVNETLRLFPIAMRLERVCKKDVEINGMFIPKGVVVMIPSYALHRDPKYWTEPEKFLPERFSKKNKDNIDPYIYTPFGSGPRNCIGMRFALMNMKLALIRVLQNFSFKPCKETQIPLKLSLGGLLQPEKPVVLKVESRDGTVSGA

The IC50 is the concentration at which inhibition is half-maximal. Higher therefore signals weaker potency. `COc1ccc(-c2cc(=O)c3c(O)c(OC)c(OCCN4CCNC(=O)C4)cc3o2)cc1OC` [Compound 1, 4-(2-((2-(3,4-dimethoxyphenyl)-5-hydroxy-6-methoxy-4-oxo-4H-chromen-7-yl)oxy)ethyl)piperazin-2-one]: the “expression of α-SMA” value in series [1] is given as “inhibited”. For the same compound, in series [2], the “degree of differentiation into myofibroblasts (fibrosis symptom)” value is listed as “showed little or no fibrosis symptom” and the “growth of the cells” value is given as “inhibited”. In the series on Vimentin, the “expression of Vimentin” value is “significantly inhibited”. In the series on C57BL/6 mice (10 mpk PO), the “Protection Collagen %” value was determined as 59% and the “Mean Collagen % (histopathology collagen morphometry, left lung)” value came out at 2.8%. For the same compound, the “inhibitory effect on right lung weight, comparison of dose groups” value with C57BL/6 mice (10 mpk compared to 50 or 100 mpk and pirfenidone 100 mpk) is “the highest”. Besides, the “inhibitory effect on lung fibrosis symptoms, comparison of dose groups” value in the series with C57BL/6 mice (10 mpk compared to other concentrations) is recorded as “the highest”. In addition, in the series with C57BL/6 mice (50 mpk PO), the “Protection Collagen %” value amounted to 66% and the “Mean Collagen % (histopathology collagen morphometry, left lung)” value was 2.4%. In the series on C57BL/6 mice (100 mpk PO), the “Protection Collagen %” value amounted to 59% and the “Mean Collagen % (histopathology collagen morphometry, left lung)” value is recorded as 2.8%. In the series on C57BL/6 mice (bleomycin mice, 10-100 mpk PO), the “amount of collagen in right lung” value was “significantly inhibited this increase”; the “amount of hydroxyproline (HP) in right lung” value is on record as “significantly inhibited this increase”; the “fibrosis symptoms of left lung tissue, H&E and Sirius Red staining” value was “significantly inhibited such fibrosis symptoms”; the “increase of collagen in left lung tissue, morphometry (in words)” value is listed as “significantly inhibited this increase”. The “increase in the right lung weight” value in the series with C57BL/6 mice (bleomycin mice, 10-100 mpk PO in 30% HPCD, once a day 5 times a week for 2 weeks) is on record as “significantly inhibited”. In addition, the “pathological condition of liver tissue, H&E staining” value (“pathological condition” for short) with C57BL/6 mice (bleomycin mice, 50 mpk) was “showed hepatotoxic symptoms”. The “pathological condition” value with C57BL/6 mice (bleomycin mice, 100 mpk) is listed as “showed hepatotoxic symptoms”. For the same compound, in the series with C57BL/6 mice (group administered at 100 mpk), the “inhibitory effect on collagen, comparison of dose groups” value was “highest” and the “inhibitory effect on hydroxyproline, comparison of dose groups” value is given as “highest”. Moreover, the “pathological condition” value with C57BL/6 mice (mouse, in vivo, 10 mg/kg) was “showed the same condition as that of normal liver tissue”. Moreover, at CYP3A4, the “inhibitory activity against CYP3A4 (in words)” value is on record as “little or very low inhibitory activity”. At CYP2C9, the IC50 turned out to be 5.54 µM.
